Columns and labels:
[1] = tested on: deadnettle; test: Test D pre-/postemergence herbicide test; format: in vivo, Lamium amplexicaule; conditions: for Plant response rating: Deadnettle, scale 0 to 100; for Plant response rating, Deadnettle: scale 0 to 100 (0 no effect, 100 complete control)
Text: (§1) Seeds of plant species selected from bluegrass (annual bluegrass, Poa annua), blackgrass (Alopecurus myosuroides), canarygrass (littleseed canarygrass, Phalaris minor), chickweed (common chickweed, Stellaria media), galium (catchweed bedstraw, Galium aparine), bromegrass, downy (downy bromegrass, Bromus tectorum), field poppy (Papaver rhoeas), field violet (Viola arvensis), foxtail, green (green foxtail, Setaria viridis), deadnettle (henbit deadnettle, Lamium amplexicaule), ryegrass, Italian (Italian ryegrass, Lolium multiflorum), kochia (Kochia scoparia), lambsquarters (Chenopodium album), oilseed rape (Brassica napus), pigweed (Amaranthus retroflexus), chamomile (scentless chamomile, Matricaria inodora), Russian thistle (Salsola kali), speedwell (bird's-eye speedwell, Veronica persica), barley, spring (spring barley, Hordeum vulgare), wheat, spring (spring wheat, Triticum aestivum), buckwheat, wild (wild buckwheat, Polygonum convolvulus), mustard, wild (wild mustard, Sinapis arvensis), oat, wild (wild oat, Avena fatua), radish, wild (wild radish, Raphanus raphanistrum), […]), barley, winter (winter barley, Hordeum vulgare), and wheat, winter (winter wheat, Triticum aestivum) were planted into a silt loam soil and treated preemergence with test chemicals formulated in a non-phytotoxic solvent mixture which included a surfactant. At the same time, these species were planted in pots containing Redi-Earth® planting medium (Scotts Company, 14111 Scottslawn Road, Marysville, Ohio 43041) comprising spaghnum peat moss, vermiculite, wetting agent and starter nutrients and treated with postemergence applications of the test chemicals formulated in the same manner. Plants ranged in height from 2 to 18 cm (1- to 4-leaf stage). Treated plants and controls were maintained in a controlled growth environment for 7 to 21 days after which time all species were compared to controls and visually evaluated. Plant response ratings, summarized in Table D, are based on a scale of 0 to 100 where 0 is no effect and 100 is complete control. A dash (-) response means no test result.

[2] = tested on: galium; test: Test D pre-/postemergence herbicide test; format: in vivo, Galium aparine; conditions: for Plant response rating: Galium, scale 0 to 100; for Plant response rating, Galium: scale 0 to 100 (0 no effect, 100 complete control)
Text: as §1

[3] = tested on: goosegrass; test: Test C pre-/postemergence herbicide test; format: in vivo, Eleusine indica
Text: Seeds of plant species selected from blackgrass (Alopecurus myosuroides), ryegrass, Italian (Italian ryegrass, Lolium multiflorum), wheat (winter wheat, Triticum aestivum), galium (catchweed bedstraw, Galium aparine), corn (Zea mays), crabgrass, large (large crabgrass, Digitaria sanguinalis), foxtail, giant (giant foxtail, Setaria faberii), johnsongrass (Sorghum halepense), lambsquarters (Chenopodium album), morningglory (Ipomoea coccinea), nutsedge, yellow (yellow nutsedge, Cyperus esculentus), pigweed (Amaranthus retroflexus), ragweed (common ragweed, Ambrosia elatior), soybean (Glycine max), barnyardgrass (Echinochloa crus-galli), oilseed rape (Brassica napus), waterhemp (common waterhemp, Amaranthus rudis), kochia (Kochia scoparia), oat, wild (wild oat, Avena fatua), surinam grass (Brachiaria decumbens), foxtail, green (green foxtail, Setaria viridis), goosegrass (Eleusine indica), bromegrass, downy (downy bromegrass, Bromus tectorum), nightshade (eastern black nightshade, Solanum ptycanthum), cocklebur (common cocklebur, Xanthium strumarium), cupgrass, woolly (woolly cupgrass, Eriochloa villosa), bermudagrass (Cynodon dactylon), sunflower, (common oilseed sunflower, Helianthus annuus), Russian thistle (Salsola kali) and velvetleaf (Abutilon theophrasti) were planted into a blend of loam soil and sand and treated preemergence with test chemicals formulated in a non-phytotoxic solvent mixture which included a surfactant. At the same time, plants selected from these crop and weed species and also barley (winter barley, Hordeum vulgare), […]), chickweed (common chickweed, Stellaria media), deadnettle (henbit deadnettle, Lamium amplexicaule), and canarygrass (littleseed canarygrass, Phalaris minor) were planted in pots containing Redi-Earth® planting medium (Scotts Company, 14111 Scottslawn Road, Marysville, Ohio 43041) comprising spaghnum peat moss, vermiculite, wetting agent and starter nutrients and treated with postemergence applications of test chemicals formulated in the same manner. Plants ranged in height from 2 to 18 cm (1- to 4-leaf stage) for postemergence treatments. Treated plants and controls were maintained in a greenhouse for 13 to 15 days, after which time all species were compared to controls and visually evaluated. Plant response ratings, summarized in Table C, are based on a scale of 0 to 100 where 0 is no effect and 100 is complete control. A dash (-) response means no test result.

[4] = Postemergence, 31 g ai/ha, scale 0 (no effect) to 100 (complete control)
[5] = Postemergence, 62 g ai/ha, scale 0 to 100 (0 no effect, 100 complete control)
[6] = Postemergence, 125 g ai/ha, scale 0 to 100 (0 no effect, 100 complete control)
[7] = Postemergence, 250 g ai/ha, scale 0 to 100 (0 no effect, 100 complete control)
[8] = Preemergence, 62 g ai/ha, scale 0 to 100
[9] = Preemergence, 125 g ai/ha, scale 0 to 100 (0 no effect, 100 complete control)
[10] = Preemergence, 31 g ai/ha, scale 0 to 100 (0 no effect, 100 complete control)

SMILES | Plant response rating ([1]; Postemergence, 31 g ai/ha) | Plant response rating ([1]; Postemergence, 62 g ai/ha) | Plant response rating ([1]; Postemergence, 125 g ai/ha) | Plant response rating, Deadnettle ([1]; Preemergence, 62 g ai/ha) | Plant response rating, Deadnettle ([1]; Preemergence, 31 g ai/ha) | Plant response rating ([1]; Preemergence, 125 g ai/ha) | Plant response rating ([1]; Preemergence, 250 g ai/ha) | Plant response rating ([2]; Postemergence, 31 g ai/ha) | Plant response rating ([2]; Postemergence, 62 g ai/ha) | Plant response rating ([2]; Postemergence, 125 g ai/ha) | Plant response rating, Galium ([2]; Preemergence, 62 g ai/ha) | Plant response rating, Galium ([2]; Preemergence, 31 g ai/ha) | Plant response rating ([2]; Preemergence, 125 g ai/ha) | Plant response rating ([2]; Preemergence, 250 g ai/ha) | Plant response rating, Goosegrass [3, 4] | Plant response rating, Goosegrass [3, 5] | Plant response rating, Goosegrass [3, 6] | Plant response rating, Goosegrass [3, 8] | Plant response rating, Goosegrass [3, 9] | Goosegrass plant response rating [3, 10] | also measured
O=C1NCC(c2ccc(Cl)c(F)c2)C1C(=O)Nc1cccc(F)c1F (stereo not shown) [Compound 52] | 0 | 0 | 20 | 0 | 0 | 0 | 30 | 0 | 0 | 25 | 0 | 0 | 0 | 20 | 0 | 0 | 20 | 20 | 60 | 10 | Plant response rating ([1]; Postemergence, 16 g ai/ha): 0; Plant response rating ([1]; Postemergence, 250 g ai/ha): 25; Plant response rating, Deadnettle ([1]; Preemergence, 16 g ai/ha): 0; Plant response rating ([2]; Postemergence, 16 g ai/ha): 0; Plant response rating ([2]; Postemergence, 250 g ai/ha): 35; Plant response rating, Galium ([2]; Preemergence, 16 g ai/ha): 0; Plant response rating, Goosegrass [3, 7]: 20
O=C1NCC(c2ccc(F)c(C(F)(F)F)c2)C1C(=O)Nc1cccc(F)c1F (racemic) [Compound 77] |  |  |  | 65 | 15 | 60 | 75 |  |  |  | 55 | 35 | 85 | 85 |  |  |  |  |  |  | 
O=C1NCC(c2cc(F)c(F)cc2F)C1C(=O)Nc1cccc(F)c1F (stereo not shown) [Compound 50] | 0 | 0 | 0 | 100 | 50 | 100 |  | 0 | 0 | 0 | 0 | 0 | 0 |  | 25 | 25 | 25 |  |  |  | Plant response rating ([1]; Postemergence, 16 g ai/ha): 0; Plant response rating, Deadnettle ([1]; Preemergence, 16 g ai/ha): 50; Plant response rating ([2]; Postemergence, 16 g ai/ha): 0; Plant response rating, Galium ([2]; Preemergence, 16 g ai/ha): 0; Plant response rating, Goosegrass [3, 7]: 25
O=C1NCC(c2ccc(C(F)(F)F)cc2)C1C(=O)Nc1ccccc1F (stereo not shown) [Compound 231] | 35 | 70 | 35 | 75 | 35 |  | 85 | 40 | 45 | 55 | 40 | 20 |  | 40 |  |  |  |  |  |  | Plant response rating ([1]; Postemergence, 250 g ai/ha): 70; Plant response rating, Deadnettle ([1]; Preemergence, 125 g ai/ha): 60; Plant response rating ([2]; Postemergence, 250 g ai/ha): 55; Plant response rating, Galium ([2]; Preemergence, 125 g ai/ha): 35
O=C1NCC(c2ccc(F)c(Cl)c2)C1C(=O)Nc1ccccc1F (stereo not shown) [Compound 60] |  |  |  |  |  |  |  |  |  |  |  |  |  |  | 0 | 0 | 0 | 0 | 0 | 0 | 
O=C1NCCC1C(=O)N(c1ccc(F)c(F)c1)c1ccccc1F (stereo not shown) [Compound 5, N-(3,4-difluorophenyl)-N-(2-fluorophenyl)-2-oxo-3-pyrrolidinecarboxamide] |  |  |  |  |  |  |  |  |  |  |  |  |  |  |  |  |  | 0 | 0 | 0 | 
O=C1NCC(c2ccc(F)c(F)c2)C1C(=O)Nc1ccccc1C(F)(F)F (racemic) [Compound 6] | 0 | 0 | 10 | 0 | 0 | 40 | 40 | 0 | 0 | 0 | 50 | 0 | 100 | 100 |  |  |  |  |  |  | Plant response rating ([1]; Postemergence, 16 g ai/ha): 0; Plant response rating ([1]; Postemergence, 250 g ai/ha): 10; Plant response rating, Deadnettle ([1]; Preemergence, 16 g ai/ha): 0; Plant response rating ([2]; Postemergence, 16 g ai/ha): 0; Plant response rating ([2]; Postemergence, 250 g ai/ha): 0; Plant response rating, Galium ([2]; Preemergence, 16 g ai/ha): 0
O=C1NCC(c2cc(F)c(F)c(F)c2)C1C(=O)Nc1cccc(F)c1F (stereo not shown) [Compound 48] |  |  |  |  |  |  |  |  |  |  |  |  |  |  | 10 | 10 | 10 | 10 | 15 | 0 | Plant response rating, Goosegrass ([3]; Postemergence, 16 g ai/ha, scale 0 to 100 (0 no effect, 100 complete control)): 10; Plant response rating, Goosegrass ([3]; Preemergence, 16 g ai/ha, scale 0 to 100): 0
O=C1NCC(c2cccc(OC(F)(F)F)c2)C1C(=O)Nc1ccccc1F (stereo not shown) [Compound 69] |  |  |  |  |  |  |  |  |  |  |  |  |  |  |  |  |  | 40 | 40 |  | Goosegrass plant response rating ([3]; Preemergence, 31 g ai/ha, scale 0 to 100, 0 is no effect and 100 is complete control): 20; Plant response rating (scale of 0 to 100), Goosegrass ([3]; Preemergence, 250 g ai/ha): 75
